Reference: ChEMBL document CHEMBL1201862, “PubChem BioAssay data set” (2004)
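Assay format: 96-well plates, 48-hour exposure. GI50 = concentration required for 50% inhibition of growth.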 Activity calls are given as the source filed them. Rule as the data show it: active = GI50 up to about 1.1 µM and inactive = higher.

Key:
Test in all cases: NCI anticancer screen, dose series, 48 h
786-0 = system: 786-0
A498 = system: A498
A549 = system: A549
ACHN = system: ACHN
BT-549 = system: BT-549
CAKI-1 = system: CAKI-1
CCRF-CEM = system: CCRF-CEM
COLO 205 = system: COLO 205
DU-145 = system: DU-145
EKVX = system: EKVX
HCC 2998 = system: HCC 2998
HCT-116 = system: HCT-116
HCT-15 = system: HCT-15
HL-60 = system: HL-60
HOP-62 = system: HOP-62
HOP-92 = system: HOP-92
HT-29 = system: HT-29
Hs-578T = system: Hs-578T
IGROV-1 = system: IGROV-1
KM12 = system: KM12
M14 = system: M14
MCF7 = system: MCF7
MDA-MB-231 = system: MDA-MB-231
MDA-MB-435 = system: MDA-MB-435
MOLT-4 = system: MOLT-4
Malme-3M = system: Malme-3M
NCI-H226 = system: NCI-H226
NCI-H23 = system: NCI-H23
NCI-H460 = system: NCI-H460
NCI-H522 = system: NCI-H522
NCI/ADR-RES = system: NCI/ADR-RES
OVCAR-3 = system: OVCAR-3
OVCAR-4 = system: OVCAR-4
OVCAR-5 = system: OVCAR-5
OVCAR-8 = system: OVCAR-8
PC-3 = system: PC-3
RPMI-8226 = system: RPMI-8226
RXF 393 = system: RXF 393
SF-268 = system: SF-268
SF-295 = system: SF-295
SF-539 = system: SF-539
SK-MEL-28 = system: SK-MEL-28
SK-MEL-2 = system: SK-MEL-2
SK-MEL-5 = system: SK-MEL-5
SK-OV-3 = system: SK-OV-3
SN12C = system: SN12C
SNB-19 = system: SNB-19
SNB-75 = system: SNB-75
SW-620 = system: SW-620
T47D = system: T47D
TK-10 = system: TK-10
U-251 = system: U-251
UACC-257 = system: UACC-257
UACC-62 = system: UACC-62
UO-31 = system: UO-31
K562 = system: K562
LOX IMVI = system: LOX IMVI

## O=C(Nc1nccs1)NS(=O)(=O)n1cnc2ccccc21
786-0
  GI50: > 100 µM (inactive)
A498
  GI50: > 100 µM (inactive)
A549
  GI50: > 100 µM (inactive)
ACHN
  GI50: > 100 µM (inactive)
BT-549
  GI50: > 100 µM (inactive)
CAKI-1
  GI50: > 100 µM (inactive)
CCRF-CEM
  GI50: > 100 µM (inactive)
COLO 205
  GI50: > 100 µM (inactive)
DU-145
  GI50: > 100 µM (inactive)
EKVX
  GI50: > 100 µM (inactive)
HCC 2998
  GI50: > 100 µM (inactive)
HCT-116
  GI50: > 100 µM (inactive)
HCT-15
  GI50: > 100 µM
HL-60
  GI50: > 100 µM (inactive)
HOP-62
  GI50: > 100 µM (inactive)
HOP-92
  GI50: > 100 µM (inactive)
HT-29
  GI50: > 100 µM (inactive)
Hs-578T
  GI50: > 100 µM (inactive)
IGROV-1
  GI50: > 100 µM (inactive)
KM12
  GI50: > 100 µM (inactive)
M14
  GI50: > 100 µM (inactive)
MCF7
  GI50: > 100 µM (inactive)
MDA-MB-231
  GI50: > 100 µM (inactive)
MDA-MB-435
  GI50: > 100 µM (inactive)
MOLT-4
  GI50: > 100 µM (inactive)
Malme-3M
  GI50: > 100 µM (inactive)
NCI-H226
  GI50: > 100 µM (inactive)
NCI-H23
  GI50: > 100 µM (inactive)
NCI-H460
  GI50: > 100 µM (inactive)
NCI-H522
  GI50: > 100 µM (inactive)
NCI/ADR-RES
  GI50: > 100 µM (inactive)
OVCAR-3
  GI50: > 100 µM (inactive)
OVCAR-4
  GI50: > 100 µM (inactive)
OVCAR-5
  GI50: > 100 µM (inactive)
OVCAR-8
  GI50: > 100 µM (inactive)
PC-3
  GI50: > 100 µM (inactive)
RPMI-8226
  GI50: > 100 µM (inactive)
RXF 393
  GI50: > 100 µM (inactive)
SF-268
  GI50: > 100 µM (inactive)
SF-295
  GI50: > 100 µM (inactive)
SF-539
  GI50: > 100 µM (inactive)
SK-MEL-28
  GI50: > 100 µM (inactive)
SK-MEL-2
  GI50: > 100 µM (inactive)
SK-MEL-5
  GI50: > 100 µM (inactive)
SK-OV-3
  GI50: > 100 µM (inactive)
SN12C
  GI50: > 100 µM (inactive)
SNB-19
  GI50: > 100 µM (inactive)
SNB-75
  GI50: > 100 µM (inactive)
SW-620
  GI50: > 100 µM (inactive)
T47D
  GI50: > 100 µM (inactive)
TK-10
  GI50: > 100 µM (inactive)
U-251
  GI50: > 100 µM (inactive)
UACC-257
  GI50: > 100 µM (inactive)
UACC-62
  GI50: > 100 µM (inactive)
UO-31
  GI50: > 100 µM (inactive)

## CN(C)CC1CCCCCCCCCCC1=O (stereo not given)
Hs-578T
  GI50: 66.4 µM (inactive)
IGROV-1
  GI50: > 100 µM (inactive)
SK-MEL-28
  GI50: > 100 µM (inactive)
SK-MEL-5
  GI50: > 100 µM (inactive)
SK-OV-3
  GI50: 86.7 µM (inactive)
SNB-75
  GI50: > 100 µM (inactive)
UACC-62
  GI50: > 100 µM (inactive)

## CCc1cccc2c3c([nH]c12)-c1ccccc1NC(=O)C3
786-0
  GI50: > 100 µM (inactive)
A498
  GI50: 19.5 µM (inactive)
A549
  GI50: > 100 µM (inactive)
BT-549
  GI50: > 100 µM (inactive)
CAKI-1
  GI50: 43.6 µM (inactive)
CCRF-CEM
  GI50: > 100 µM (inactive)
COLO 205
  GI50: > 100 µM (inactive)
DU-145
  GI50: > 100 µM (inactive)
EKVX
  GI50: > 100 µM (inactive)
HCT-15
  GI50: 84.1 µM
HL-60
  GI50: 92.3 µM (inactive)
HOP-62
  GI50: > 100 µM (inactive)
HOP-92
  GI50: > 100 µM (inactive)
HT-29
  GI50: > 100 µM (inactive)
Hs-578T
  GI50: 30.7 µM (inactive)
IGROV-1
  GI50: > 100 µM (inactive)
K562
  GI50: 19.4 µM (inactive)
KM12
  GI50: 7.06 µM (inactive)
LOX IMVI
  GI50: 72.9 µM (inactive)
M14
  GI50: > 100 µM (inactive)
MCF7
  GI50: 18.3 µM (inactive)
MDA-MB-231
  GI50: 5.66 µM (inactive)
MDA-MB-435
  GI50: 35.3 µM (inactive)
MOLT-4
  GI50: 8.89 µM (inactive)
NCI-H226
  GI50: 14.1 µM (inactive)
NCI-H23
  GI50: > 100 µM (inactive)
NCI-H460
  GI50: > 100 µM (inactive)
NCI/ADR-RES
  GI50: > 100 µM (inactive)
OVCAR-3
  GI50: > 100 µM (inactive)
OVCAR-5
  GI50: > 100 µM (inactive)
OVCAR-8
  GI50: > 100 µM (inactive)
RPMI-8226
  GI50: 67.5 µM (inactive)
SF-268
  GI50: 48.2 µM (inactive)
SF-295
  GI50: > 100 µM (inactive)
SK-MEL-28
  GI50: > 100 µM (inactive)
SK-MEL-2
  GI50: > 100 µM (inactive)
SK-MEL-5
  GI50: > 100 µM (inactive)
SK-OV-3
  GI50: > 100 µM (inactive)
SN12C
  GI50: 95.5 µM (inactive)
SNB-19
  GI50: > 100 µM (inactive)
SNB-75
  GI50: 13.2 µM (inactive)
SW-620
  GI50: > 100 µM (inactive)
T47D
  GI50: 3.66 µM (inactive)
TK-10
  GI50: > 100 µM (inactive)
U-251
  GI50: > 100 µM (inactive)
UACC-257
  GI50: > 100 µM (inactive)
UACC-62
  GI50: 65.9 µM (inactive)
UO-31
  GI50: > 100 µM (inactive)
